Experimental data taken from PubChem BioAssay (NCI).
Several values for one entry are separate records, joined by “and”; a condition that tells them apart may be missing. Equal entries are not always repeated.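 Values below derive from 48-hour exposures of cells grown in 96-well plates, with endpoints linearly interpolated between the two concentrations bracketing the appropriate inhibition level. GI50 marks 50% less growth. The concentration for full growth arrest is given as TGI.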

Assays:
Experiment in all cases: inhibition of tumour cell growth, NCI panel, 48 h
SW-620 colon = tested on: SW-620 colon
NCI-H226 lung = tested on: NCI-H226 lung
UACC-257 melanoma = tested on: UACC-257 melanoma
SK-MEL-2 melanoma = tested on: SK-MEL-2 melanoma
KM12 colon = tested on: KM12 colon
MDA-MB-435 = tested on: MDA-MB-435
HOP-92 NSCLC = tested on: HOP-92 NSCLC
786-0 renal = tested on: 786-0 renal
SF-539 CNS = tested on: SF-539 CNS
LOX IMVI melanoma = tested on: LOX IMVI melanoma
IGROV1 ovarian = tested on: IGROV1 ovarian
SF-268 CNS = tested on: SF-268 CNS
MDA-MB-231 breast = tested on: MDA-MB-231 breast
HCT-116 colon = tested on: HCT-116 colon
RPMI-8226 leukemia = tested on: RPMI-8226 leukemia
MALME-3M melanoma = tested on: MALME-3M melanoma
NCI-H522 lung = tested on: NCI-H522 lung
PC-3 prostate = tested on: PC-3 prostate
ACHN renal = tested on: ACHN renal
SR leukemia = tested on: SR leukemia
K-562 leukemia = tested on: K-562 leukemia
SK-MEL-28 melanoma = tested on: SK-MEL-28 melanoma
HL-60(TB) leukemia = tested on: HL-60(TB) leukemia
SK-OV-3 ovarian = tested on: SK-OV-3 ovarian
EKVX NSCLC = tested on: EKVX NSCLC
HCT-15 colon = tested on: HCT-15 colon
RXF 393 renal = tested on: RXF 393 renal
COLO 205 colon = tested on: COLO 205 colon
M14 melanoma = tested on: M14 melanoma
U251 CNS = tested on: U251 CNS
A549 NSCLC = tested on: A549 NSCLC
NCI/ADR-RES ovarian = tested on: NCI/ADR-RES ovarian
SNB-75 CNS = tested on: SNB-75 CNS
SF-295 CNS = tested on: SF-295 CNS
HS 578T breast = tested on: HS 578T breast
OVCAR-4 ovarian = tested on: OVCAR-4 ovarian
SK-MEL-5 melanoma = tested on: SK-MEL-5 melanoma
TK-10 renal = tested on: TK-10 renal
MOLT-4 leukemia = tested on: MOLT-4 leukemia
NCI-H23 lung = tested on: NCI-H23 lung
UO-31 renal = tested on: UO-31 renal
CAKI-1 renal = tested on: CAKI-1 renal
NCI-H460 lung = tested on: NCI-H460 lung
MCF7 breast = tested on: MCF7 breast
HCC-2998 colon = tested on: HCC-2998 colon
SN12C renal = tested on: SN12C renal
OVCAR-5 ovarian = tested on: OVCAR-5 ovarian
SNB-19 CNS = tested on: SNB-19 CNS
UACC-62 melanoma = tested on: UACC-62 melanoma
OVCAR-3 ovarian = tested on: OVCAR-3 ovarian
DU-145 prostate = tested on: DU-145 prostate
CCRF-CEM leukemia = tested on: CCRF-CEM leukemia
OVCAR-8 ovarian = tested on: OVCAR-8 ovarian
A498 renal = tested on: A498 renal
BT-549 breast = tested on: BT-549 breast
HOP-62 NSCLC = tested on: HOP-62 NSCLC
HT29 colon = tested on: HT29 colon
T-47D breast = tested on: T-47D breast

Structure (SMILES): CNC(=O)CN1CCC(Oc2cc3c(Nc4cccc(Cl)c4F)ncnc3cc2OC)CC1
- GI50 (SW-620 colon): 15.6 µM and > 6.56 µM
- TGI (SW-620 colon): 32.9 µM and > 10 µM
- GI50 (NCI-H226 lung): 13.9 µM and > 6.23 µM
- TGI (NCI-H226 lung): 42.1 µM and > 10 µM
- GI50 (UACC-257 melanoma): 13.7 µM and > 10 µM
- TGI (UACC-257 melanoma): 29.2 µM and > 10 µM
- GI50 (SK-MEL-2 melanoma): 16.7 µM and > 7.55 µM
- TGI (SK-MEL-2 melanoma): 34.1 µM and > 10 µM
- GI50 (KM12 colon): 17.3 µM and > 5.89 µM
- TGI (KM12 colon): 32.4 µM and > 10 µM
- GI50 (MDA-MB-435): 21.5 µM and > 8.41 µM
- TGI (MDA-MB-435): > 62.4 µM
- GI50 (HOP-92 NSCLC): 1.9 µM and 1.29 µM
- TGI (HOP-92 NSCLC): 16.4 µM and > 9.33 µM
- GI50 (786-0 renal): 5.28 µM and 5.31 µM
- TGI (786-0 renal): 27.8 µM and > 10 µM
- GI50 (SF-539 CNS): 13.5 µM and > 5.94 µM
- TGI (SF-539 CNS): 33.4 µM and > 10 µM
- GI50 (LOX IMVI melanoma): 8.12 µM and > 5.06 µM
- TGI (LOX IMVI melanoma): 20.9 µM and > 10 µM
- GI50 (IGROV1 ovarian): 0.303 µM and 0.084 µM
- TGI (IGROV1 ovarian): 5.37 µM and 4.3 µM
- GI50 (SF-268 CNS): 8.25 µM and 4.25 µM
- TGI (SF-268 CNS): > 45.2 µM
- GI50 (MDA-MB-231 breast): 5.9 µM and 4.18 µM
- TGI (MDA-MB-231 breast): 20.7 µM and > 10 µM
- GI50 (HCT-116 colon): 14.8 µM and > 5.44 µM
- TGI (HCT-116 colon): 28.5 µM and > 10 µM
- GI50 (RPMI-8226 leukemia): 32.2 µM and > 10 µM
- TGI (RPMI-8226 leukemia): > 100 µM
- GI50 (MALME-3M melanoma): 16.1 µM and > 10 µM
- TGI (MALME-3M melanoma): > 58 µM
- GI50 (NCI-H522 lung): 0.143 µM and 0.0614 µM
- TGI (NCI-H522 lung): 20.4 µM and > 10 µM
- GI50 (PC-3 prostate): 17.5 µM and > 8.3 µM
- TGI (PC-3 prostate): > 69.1 µM
- GI50 (ACHN renal): < 0.0224 µM and 0.0561 µM
- TGI (ACHN renal): 25.6 µM and > 10 µM
- GI50 (SR leukemia): 21.1 µM and 2.19 µM
- TGI (SR leukemia): > 70.1 µM and 8.97 µM
- GI50 (K-562 leukemia): 16.8 µM and > 10 µM
- TGI (K-562 leukemia): 45.6 µM and > 10 µM
- GI50 (SK-MEL-28 melanoma): 19.2 µM and > 7.55 µM
- TGI (SK-MEL-28 melanoma): 47.3 µM and > 10 µM
- GI50 (HL-60(TB) leukemia): 26.9 µM and > 4.95 µM
- TGI (HL-60(TB) leukemia): > 65.4 µM
- GI50 (SK-OV-3 ovarian): 0.167 µM and 0.153 µM
- TGI (SK-OV-3 ovarian): 5.73 µM and 1.82 µM
- GI50 (EKVX NSCLC): < 0.0147 µM and 0.0154 µM
- GI50 (HCT-15 colon): 11.2 µM and > 5.17 µM
- TGI (HCT-15 colon): 67.6 µM and > 10 µM
- GI50 (RXF 393 renal): 7.35 µM and 2.37 µM
- TGI (RXF 393 renal): 27.3 µM and > 6.92 µM
- GI50 (COLO 205 colon): 13.9 µM and > 4.66 µM
- TGI (COLO 205 colon): 29 µM and > 8.92 µM
- GI50 (M14 melanoma): 18 µM and > 8.27 µM
- TGI (M14 melanoma): 34.1 µM and > 10 µM
- GI50 (U251 CNS): 17 µM and > 6.47 µM
- TGI (U251 CNS): 45.9 µM and > 10 µM
- GI50 (A549 NSCLC): 5.66 µM and > 4.69 µM
- TGI (A549 NSCLC): 22.9 µM and > 10 µM
- GI50 (NCI/ADR-RES ovarian): 11.4 µM and > 6.36 µM
- TGI (NCI/ADR-RES ovarian): 66.4 µM and > 10 µM
- GI50 (SNB-75 CNS): 2.09 µM and 1.84 µM
- TGI (SNB-75 CNS): 10.8 µM and > 10 µM
- GI50 (SF-295 CNS): 12.5 µM and > 5.62 µM
- TGI (SF-295 CNS): 29.3 µM and > 10 µM
- GI50 (HS 578T breast): 3.35 µM and 2.96 µM
- TGI (HS 578T breast): 21.2 µM and > 10 µM
- GI50 (OVCAR-4 ovarian): 20.1 µM and > 7.05 µM
- TGI (OVCAR-4 ovarian): 98.5 µM and > 10 µM
- GI50 (SK-MEL-5 melanoma): 13.4 µM and 4.49 µM
- TGI (SK-MEL-5 melanoma): 26.5 µM and > 10 µM
- GI50 (TK-10 renal): 0.0237 µM and 0.00744 µM
- TGI (TK-10 renal): 14.8 µM and > 10 µM
- GI50 (MOLT-4 leukemia): 16 µM and > 6.28 µM
- TGI (MOLT-4 leukemia): > 74.5 µM
- GI50 (NCI-H23 lung): 18.2 µM and > 7.11 µM
- TGI (NCI-H23 lung): > 58.5 µM
- GI50 (UO-31 renal): 0.177 µM and 0.427 µM
- TGI (UO-31 renal): 15.2 µM and > 10 µM
- GI50 (CAKI-1 renal): 0.216 µM and 1.11 µM
- TGI (CAKI-1 renal): 10.4 µM and > 10 µM
- GI50 (NCI-H460 lung): 28.1 µM and > 6.73 µM
- TGI (NCI-H460 lung): > 100 µM
- GI50 (MCF7 breast): 13.8 µM and > 5 µM
- TGI (MCF7 breast): > 74.5 µM
- GI50 (HCC-2998 colon): 15.9 µM and > 7.7 µM
- TGI (HCC-2998 colon): 34.6 µM and > 10 µM
- GI50 (SN12C renal): 2.96 µM and 3.42 µM
- TGI (SN12C renal): > 100 µM
- GI50 (OVCAR-5 ovarian): 1.9 µM and 1.56 µM
- TGI (OVCAR-5 ovarian): 22.4 µM and > 10 µM
- GI50 (SNB-19 CNS): 31.5 µM and > 8.29 µM
- TGI (SNB-19 CNS): > 100 µM
- GI50 (UACC-62 melanoma): 16.3 µM and > 10 µM
- TGI (UACC-62 melanoma): 32.6 µM and > 10 µM
- GI50 (OVCAR-3 ovarian): 3.83 µM and 2.34 µM
- TGI (OVCAR-3 ovarian): 18.8 µM and > 10 µM
- GI50 (DU-145 prostate): 3.64 µM and 2.19 µM
- TGI (DU-145 prostate): > 56 µM
- GI50 (CCRF-CEM leukemia): 24.6 µM and > 5.76 µM
- TGI (CCRF-CEM leukemia): 81 µM and > 10 µM
- GI50 (OVCAR-8 ovarian): 8.25 µM and > 5.04 µM
- TGI (OVCAR-8 ovarian): > 77.3 µM
- GI50 (A498 renal): 1.1 µM and 1.33 µM
- TGI (A498 renal): 11.5 µM and > 10 µM
- GI50 (BT-549 breast): 16.2 µM and > 10 µM
- TGI (BT-549 breast): 38.9 µM and > 10 µM
- GI50 (HOP-62 NSCLC): 7.91 µM and 3.95 µM
- TGI (HOP-62 NSCLC): 70.4 µM and > 10 µM
- GI50 (HT29 colon): 11.6 µM and > 7.06 µM
- TGI (HT29 colon): 32.6 µM and > 10 µM
- GI50 (T-47D breast): 1.24 µM and 0.53 µM
- TGI (T-47D breast): 18.1 µM and > 7.9 µM
